Test results as given in patent US20230066011A1, “PYRROLOPYRIMIDINE DERIVATIVE, AND PHARMACEUTICAL COMPOSITION FOR PREVENTING OR TREATING PROTEIN KINASE-RELATED DISEASE COMPRISING SAME AS ACTIVE INGREDIENT” (VORONOI CO., LTD., priority 2019, published 2023).

Tests used:
Assay type in all cases: biochemical
[1] = target: T1, human GST-DYRK1A (Homo sapiens, UniProt Q13627); test: GST-DYRK1A enzyme inhibition, ADP-Glo kinase assay; details: ATP 10 μM, GST-DYRK1A full length, read-out: DYRK1 IC50
T1 construct: purified human GST-DYRK1A (full length, Thermo Scientifics) enzyme; purchased Thermo Scientifics
Outline: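 Full-length enzyme (10 ng) was incubated with 10 μM ATP and a specific substrate for 1 h at 25 °C in 40 mM Tris-HCl pH 7.4, 20 mM MgCl2, 0.5 mg/mL BSA, 50 μM DTT. Luminescence was read against a solvent control, and IC50 values were derived from 3 data sets.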

[2] = target: T2, human GST-CLK1 (Homo sapiens, UniProt P49759); test: GST-CLK1 enzyme inhibition, ADP-Glo kinase assay; details: ATP 10 μM, GST-CLK1 129-end
T2 construct: purified human GST-CLK1 (129-end, SignalChem) enzyme; purchased SignalChem
T2 sequence (P49759 129-484 limits assumed): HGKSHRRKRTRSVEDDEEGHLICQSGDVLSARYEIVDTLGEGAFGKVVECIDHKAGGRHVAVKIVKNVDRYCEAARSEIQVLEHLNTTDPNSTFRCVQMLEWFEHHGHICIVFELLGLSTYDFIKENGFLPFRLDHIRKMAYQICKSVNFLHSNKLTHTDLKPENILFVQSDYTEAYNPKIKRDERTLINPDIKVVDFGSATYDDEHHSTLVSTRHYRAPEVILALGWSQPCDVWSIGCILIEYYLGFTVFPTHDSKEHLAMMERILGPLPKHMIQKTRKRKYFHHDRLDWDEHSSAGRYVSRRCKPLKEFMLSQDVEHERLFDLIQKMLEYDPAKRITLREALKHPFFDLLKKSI
Outline: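 ADP-Glo luminescence read-out, relative to untreated solvent control, gave IC50 (nM) from triplicate data sets. Reactions ran an hour at 25° C with 3 ng GST-CLK1 (residues 129-end), 10 μM ATP and specific substrate in Tris-HCl pH 7.4 buffer with MgCl2, BSA and DTT.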

[3] = target: LRRK2 (G2019S) (Homo sapiens, UniProt Q5S007, G2019S); test: LRRK2 G2019S enzyme inhibition, ADP-Glo kinase assay; set-up: purchased SignalChem L10-12GG; details: ATP 25 μM
LRRK2 (G2019S), sequence (Q5S007 970-2527 G2019S limits assumed): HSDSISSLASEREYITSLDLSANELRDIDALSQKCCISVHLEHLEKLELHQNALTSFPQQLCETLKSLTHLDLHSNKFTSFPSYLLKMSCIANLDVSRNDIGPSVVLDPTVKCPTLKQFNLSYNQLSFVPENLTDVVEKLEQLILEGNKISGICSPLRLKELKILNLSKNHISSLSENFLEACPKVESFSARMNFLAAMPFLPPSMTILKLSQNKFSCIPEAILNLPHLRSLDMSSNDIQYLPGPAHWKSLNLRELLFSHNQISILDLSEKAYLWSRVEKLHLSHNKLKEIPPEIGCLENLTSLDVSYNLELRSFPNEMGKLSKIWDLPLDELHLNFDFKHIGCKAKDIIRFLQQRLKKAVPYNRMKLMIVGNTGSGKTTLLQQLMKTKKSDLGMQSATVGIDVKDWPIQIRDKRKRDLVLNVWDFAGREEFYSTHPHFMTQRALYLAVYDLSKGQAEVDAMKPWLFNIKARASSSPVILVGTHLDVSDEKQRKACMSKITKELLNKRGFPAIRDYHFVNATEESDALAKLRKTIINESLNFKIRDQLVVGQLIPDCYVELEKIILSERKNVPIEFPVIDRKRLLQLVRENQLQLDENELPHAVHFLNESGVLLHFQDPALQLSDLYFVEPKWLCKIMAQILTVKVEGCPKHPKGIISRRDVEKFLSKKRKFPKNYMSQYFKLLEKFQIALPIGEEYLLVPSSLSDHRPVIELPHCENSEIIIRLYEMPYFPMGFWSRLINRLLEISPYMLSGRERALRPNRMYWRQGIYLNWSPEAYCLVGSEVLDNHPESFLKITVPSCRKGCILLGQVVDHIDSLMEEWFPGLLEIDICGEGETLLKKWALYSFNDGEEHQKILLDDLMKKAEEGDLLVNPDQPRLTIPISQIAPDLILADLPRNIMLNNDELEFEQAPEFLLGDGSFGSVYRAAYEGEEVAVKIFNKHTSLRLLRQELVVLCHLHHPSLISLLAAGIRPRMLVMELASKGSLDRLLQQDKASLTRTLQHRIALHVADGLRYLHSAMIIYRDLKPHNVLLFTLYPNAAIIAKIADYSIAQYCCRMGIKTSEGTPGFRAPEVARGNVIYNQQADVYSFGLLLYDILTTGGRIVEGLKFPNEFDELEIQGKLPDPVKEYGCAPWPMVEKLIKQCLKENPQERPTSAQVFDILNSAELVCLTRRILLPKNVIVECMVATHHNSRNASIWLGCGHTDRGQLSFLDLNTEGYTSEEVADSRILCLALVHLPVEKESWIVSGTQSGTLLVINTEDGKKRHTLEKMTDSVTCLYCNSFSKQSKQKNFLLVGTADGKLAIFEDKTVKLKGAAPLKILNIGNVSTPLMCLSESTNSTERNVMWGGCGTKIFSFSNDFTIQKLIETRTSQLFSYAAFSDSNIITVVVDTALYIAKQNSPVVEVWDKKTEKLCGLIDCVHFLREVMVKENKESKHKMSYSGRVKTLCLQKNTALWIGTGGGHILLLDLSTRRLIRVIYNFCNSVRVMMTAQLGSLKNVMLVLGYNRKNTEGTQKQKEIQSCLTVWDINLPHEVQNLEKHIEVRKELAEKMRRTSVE
Procedure: To evaluate an inhibitory activity of the compound according to the present invention against LRRK2, LRRK2 (G2019S), DYRK1, CLK1, and TTK kinases, experiments were performed as follows.
Each of the Example compounds was reacted with a purified human LRRK2 G2019S (L10-12GG, SignalChem) enzyme to evaluate an ability to inhibit an enzyme using a method as described below. A composition of 40 mM Tris-HCl (pH 7.4), 20 mM MgCl2, 0.5 mg/mL BSA, and 50 μM DTT was used as a reaction buffer, and all reactions of test substances were performed in the reaction buffer. Each of the compounds was diluted […] from a 10 mM DMSO stock using a serial dilution method, and enzyme activities were measured at final compound concentrations of 50, 10, 2, 0.4, 0.08, 0.016, 0.0032, 0.00064, 0.000128, 0.0000256, 0.00000512, and 0.000001024 μM. In the test, purified ATP (25 μM) and an enzyme substrate (0.2 μg) were reacted with a human LRRK2 G2019S (16 ng) enzyme at 25° C. for 2 hours, and the enzyme activities were then determined using an in vitro ADP-Glo™ kinase assay (Promega). An enzyme-activity reaction solution, an ADP-Glo reaction solution, and an enzyme-ability detection solution were reacted at a ratio of 2:2:1 to measure a degree of inhibition of the enzyme activity with luminescence. The degree of inhibition of the enzyme activity according to the treatment concentration of each of the compounds was calculated based on the fluorescence of the enzyme activity of the solvent control which was not treated with the compound. In this case, the concentration of each of the compounds inhibiting 50% of the enzyme activity was determined to be an IC50 (nM) value, and calculated using Prism (Version 5.01; GraphPad) software.

Structure (SMILES)	IC50 [1]	IC50 [2]	IC50 [3]
CNc1nc(Nc2ccc(S(=O)(=O)N3CCOCC3)cc2OC)nc2[nH]ccc12 [Example 2, N^2-(2-methoxy-4-(morpholinosulfonyl)phenyl)-N^4-methyl-7H-pyrrolo[2,3-d]pyrimidine-2,4-diamine 2,2,2-trifluoroacetate]	301 to 1000 nM	301 to 1000 nM	< 100 nM
CNc1nc(Nc2ccc(S(=O)(=O)N3CCC(N4CCOCC4)CC3)cc2OC)nc2[nH]ccc12 [Example 3, N^2-(2-methoxy-4-((4-morpholinopiperidin-1-yl)sulfonyl)phenyl)-N^4-methyl-7H-pyrrolo[2,3-d]pyrimidine-2,4-diamine 2,2,2-trifluoroacetate]	301 to 1000 nM	301 to 1000 nM	< 100 nM
CCCNc1nc(Nc2ccc(S(=O)(=O)N3CCOCC3)cc2OC)nc2[nH]ccc12 [Example 7, N^2-(2-methoxy-4-(morpholinosulfonyl)phenyl)-N^4-propyl-7H-pyrrolo[2,3-d]pyrimidine-2,4-diamine 2,2,2-trifluoroacetate]	301 to 1000 nM	301 to 1000 nM	< 100 nM
COc1cc(S(=O)(=O)N2CCOCC2)ccc1Nc1nc(NC(C)C)c2cc[nH]c2n1 [Example 13, N^4-isopropyl-N^2-(2-methoxy-4-(morpholinosulfonyl)phenyl)-7H-pyrrolo[2,3-d]pyrimidine-2,4-diamine 2,2,2-trifluoroacetate]	301 to 1000 nM	301 to 1000 nM	< 100 nM
COCCNc1nc(Nc2ccc(S(C)(=O)=O)cc2OC)nc2[nH]ccc12 [Example 21, N^2-(2-methoxy-4-(methylsulfonyl)phenyl)-N^4-(2-methoxyethyl)-7H-pyrrolo[2,3-d]pyrimidine-2,4-diamine 2,2,2-trifluoroacetate]	301 to 1000 nM	301 to 1000 nM	< 100 nM
COc1cc(S(=O)(=O)N2CCC(N3CCOCC3)CC2)ccc1Nc1nc(NC2CCC2)c2cc[nH]c2n1 [Example 23, N^4-cyclobutyl-N^2-(2-methoxy-4-((4-morpholinopiperidin-1-yl)sulfonyl)phenyl)-7H-pyrrolo[2,3-d]pyrimidine-2,4-diamine 2,2,2-trifluoroacetate]	301 to 1000 nM	301 to 1000 nM	< 100 nM
COc1cc(S(=O)(=O)N2CCOCC2)ccc1Nc1nc(NC2CCCCC2)c2cc[nH]c2n1 [Example 26, N^4-cyclohexyl-N^2-(2-methoxy-4-(morpholinosulfonyl)phenyl)-7H-pyrrolo[2,3-d]pyrimidine-2,4-diamine 2,2,2-trifluoroacetate]	301 to 1000 nM	301 to 1000 nM	< 100 nM
COc1cc(S(C)(=O)=O)ccc1Nc1nc(NC2CCCCC2)c2cc[nH]c2n1 [Example 27, N^4-cyclohexyl-N^2-(2-methoxy-4-(methylsulfonyl)phenyl)-7H-pyrrolo[2,3-d]pyrimidine-2,4-diamine 2,2,2-trifluoroacetate]	301 to 1000 nM	301 to 1000 nM	< 100 nM
O=C(c1ccc(Nc2nc(NCC3CCC3)c3c(C(F)(F)F)c[nH]c3n2)c2c1CCO2)N1CCC(N2CCOCC2)CC1 [Example 462, (7-((4-((cyclo-butylmethyl)amino)-5-(trifluoromethyl)-7H-pyrrolo[2,3-d]pyrimidin-2-yl)amino)-2,3-dihydrobenzo-furan-4-yl)(4-morpho-linopiperidin-1-yl)methanone]	101 to 300 nM	301 to 1000 nM	

Now from value to compound:

IC50 [1]	IC50 [2]	IC50 [3]	Structure (SMILES)
301 to 1000 nM	301 to 1000 nM	< 100 nM	COc1cc(S(C)(=O)=O)ccc1Nc1nc(NC2CCCC2)c2cc[nH]c2n1 [Example 1, N^4-cyclopentyl-N^2-(2-methoxy-4-(methylsulfonyl)phenyl)-7H-pyrrolo[2,3-d]pyrimidine-2,4-diamine]
301 to 1000 nM	301 to 1000 nM	< 100 nM	CNc1nc(Nc2ccc(S(C)(=O)=O)cc2OC)nc2[nH]ccc12 [Example 4, N^2-(2-methoxy-4-(methylsulfonyl)phenyl)-N^4-methyl-7H-pyrrolo[2,3-d]pyrimidine-2,4-diamine 2,2,2-trifluoroacetate]
301 to 1000 nM	301 to 1000 nM	< 100 nM	CCNc1nc(Nc2ccc(S(=O)(=O)N3CCOCC3)cc2OC)nc2[nH]ccc12 [Example 5, N^4-ethyl-N^2-(2-methoxy-4-(morpholinosulfonyl)phenyl)-7H-pyrrolo[2,3-d]pyrimidine-2,4-diamine 2,2,2-trifluoroacetate]
301 to 1000 nM	301 to 1000 nM	< 100 nM	CCNc1nc(Nc2ccc(S(=O)(=O)N3CCC(N4CCOCC4)CC3)cc2OC)nc2[nH]ccc12 [Example 6, N^4-ethyl-N^2-(2-methoxy-4-((4-morpholinopiperidin-1-yl)sulfonyl)phenyl)-7H-pyrrolo[2,3-d]pyrimidine-2,4-diamine 2,2,2-trifluoroacetate]
301 to 1000 nM	301 to 1000 nM	< 100 nM	CCCNc1nc(Nc2ccc(S(=O)(=O)N3CCC(N4CCOCC4)CC3)cc2OC)nc2[nH]ccc12 [Example 8, N^2-(2-methoxy-4-((4-morpholinopiperidin-1-yl)sulfonyl)phenyl)-N^4-propyl-7H-pyrrolo[2,3-d]pyrimidine-2,4-diamine 2,2,2-trifluoroacetate]
301 to 1000 nM	301 to 1000 nM	< 100 nM	CCCNc1nc(Nc2ccc(S(C)(=O)=O)cc2OC)nc2[nH]ccc12 [Example 9, N^2-(2-methoxy-4-(methylsulfonyl)phenyl)-N^4-propyl-7H-pyrrolo[2,3-d]pyrimidine-2,4-diamine 2,2,2-trifluoroacetate]
301 to 1000 nM	301 to 1000 nM	< 100 nM	COc1cc(S(=O)(=O)N2CCOCC2)ccc1Nc1nc(NCC(C)C)c2cc[nH]c2n1 [Example 10, N^4-isobutyl-N^2-(2-methoxy-4-(morpholinosulfonyl)phenyl)-7H-pyrrolo[2,3-d]pyrimidine-2,4-diamine]
301 to 1000 nM	301 to 1000 nM	< 100 nM	COc1cc(S(=O)(=O)N2CCC(N3CCOCC3)CC2)ccc1Nc1nc(NCC(C)C)c2cc[nH]c2n1 [Example 11, N^4-isobutyl-N^2-(2-methoxy-4-((4-morpholinopiperidin-1-yl)sulfonyl)phenyl)-7H-pyrrolo[2,3-d]pyrimidine-2,4-diamine]
301 to 1000 nM	301 to 1000 nM	< 100 nM	COc1cc(S(C)(=O)=O)ccc1Nc1nc(NCC(C)C)c2cc[nH]c2n1 [Example 12, N^4-isobutyl-N^2-(2-methoxy-4-(methylsulfonyl)phenyl)-7H-pyrrolo[2,3-d]pyrimidine-2,4-diamine 2,2,2-trifluoroacetate]
301 to 1000 nM	301 to 1000 nM	< 100 nM	COc1cc(S(C)(=O)=O)ccc1Nc1nc(NC(C)C)c2cc[nH]c2n1 [Example 14, N^4-isopropyl-N^2-(2-methoxy-4-(methylsulfonyl)phenyl)-7H-pyrrolo[2,3-d]pyrimidine-2,4-diamine 2,2,2-trifluoroacetate]
301 to 1000 nM	301 to 1000 nM	< 100 nM	COc1cc(S(=O)(=O)N2CCOCC2)ccc1Nc1nc(NC2CCC2)c2cc[nH]c2n1 [Example 22, N^4cyclobutyl-N^2-(2-methoxy-4-(morpholinosulfonyl)phenyl)-7H-pyrrolo[2,3-d]pyrimidine-2,4-diamine]
301 to 1000 nM	301 to 1000 nM	< 100 nM	COc1cc(S(C)(=O)=O)ccc1Nc1nc(NC2CCC2)c2cc[nH]c2n1 [Example 24, N^4-cyclobutyl-N^2-(2-methoxy-4-(methylsulfonyl)phenyl)-7H-pyrrolo[2,3-d]pyrimidine-2,4-diamine]
301 to 1000 nM	301 to 1000 nM	< 100 nM	COc1cc(S(=O)(=O)N2CCOCC2)ccc1Nc1nc(NC2CCCC2)c2cc[nH]c2n1 [Example 25, N^4-cyclopentyl-N^2-(2-methoxy-4-(morpholinosulfonyl)phenyl)-7H-pyrrolo[2,3-d]pyrimidine-2,4-diamine 2,2,2-trifluoroacetate]
